Measurements: publication PMC10675077, “Antimicrobial Properties of New Polyamines Conjugated with Oxygen-Containing Aromatic Functional Groups” (Molecules, 2023)
Converted amounts (≈) assume the structure as drawn.

Experiments:
[1] = system: S. aureus; experiment: Lytic activity, time-kill (OD600), S. aureus; format: cell-based, Staphylococcus aureus; conditions: 5 times the MIC
Description: (§1) To determine if the compounds showing microbicidal activity induce cell lysis, the procedure described by Fleeman et al. was followed, with the modifications indicated below. The E. coli and S. aureus strains were grown as in the experiments described earlier. The cells corresponding to 1.5 units of OD600 were collected and resuspended in 1% BP after washing in the same medium. They were incubated in a final volume of 1 mL with concentrations 5 times higher than the MIC of the analysed compounds, and OD600 was monitored over time. Other antimicrobial compounds were also used in this study as controls. The experiments were performed in triplicate.

[2] = system: E. coli; experiment: Lytic activity, time-kill (OD600), E. coli; format: cell-based, Escherichia coli; conditions: 5 times the MIC
Description: as §1

[3] = system: Staphylococcus aureus BHI; experiment: MIC, microdilution in culture medium, S. aureus; format: cell-based; conditions: Staphylococcus aureus; 20 h, 37 °C; average of at least three experiments; read-out: MIC, Bacteria, S. aureus BHI
Source text: (§2) The microorganisms used for the susceptibility tests were the bacteria Escherichia coli JM101 and Staphylococcus aureus BHI, and the yeast Saccharomyces cerevisiae strains BY4741 (MAT a his3Δ1 leu2Δ0 met15Δ0 ura3Δ0 (EUROSCARF)) carrying YEplac195 (from EUROSCARF) or YEPlac195-PDR5 (provided by Ayse Banu Demir, Izmir University of Economics, Turkey) plasmids.
(§3) Bacterial strains were usually maintained and grown in an LB medium (0.5% (w/v) yeast extract, 1% (w/v) bactotryptone, and 1% (w/v) NaCl) at 37 °C. For MIC (minimal inhibitory concentration) and MMC (minimal microbicidal concentration) assays, and for the determination of synergies, overnight growth was carried out in 2% (w/v) bactopeptone (BP), and then the cultures were diluted and incubated for several hours in 2% (w/v) BP for ensuring logarithmic growth. Yeast strains were grown in an SC-ura medium (0.17% (w/v) yeast nitrogen base without amino acids and ammonium sulphate, 0.2% (w/v) drop-out without uracil, 0.5% (w/v) (NH4)2SO4, and 2% (w/v) glucose) at 30 °C. Liquid cultures were incubated with shaking (200 rpm). Solid media also contained 2% (w/v) agar.
(§4) For the analysis of the antimicrobial activity, the strategies and indications of Cushnie et al. were considered. The standardised method of microdilution in a culture medium was followed to determine the MIC [55]. In bacterial strains, serial dilutions of the compounds to be tested and the control antibiotics were prepared in phosphate buffer (20 mM, pH 7.4, 0.5 mL) and were mixed with a suspension of bacterial cells in a logarithmic growth phase (in 1% BP, 0.5 mL). The final OD600 of the whole solutions were 0.004 and 0.008 for E. coli and S. aureus cultures, respectively. After 20 h of incubation at 37 °C with shaking, the MIC was determined as the lowest concentration of each compound in which no visible bacterial growth was observed.

[4] = system: Escherichia coli JM101; experiment: MIC, microdilution in culture medium, E. coli; format: cell-based; conditions: Escherichia coli, JM101; 20 h, 37 °C; average of at least three experiments; read-out: MIC, Bacteria, E. coli JM101
Source text: as §2, §3, §4

[5] = system: yeast cells; experiment: Intracellular ATP by luciferase bioluminescence, yeast; format: cell-based, Saccharomyces cerevisiae; conditions: overnight treatment
Description: The procedure described by Lehtinen et al. was followed, with the modifications indicated herein. In the case of bacteria, 1.5 OD600 units were incubated overnight in 1 mL of final volume with 5-fold MIC concentrations. Then, the cells were collected, washed 3 times in 20 mM phosphate buffer pH 7.4, and lysed in 200 μL of LS1 (50 mM of glucose, 25 mM of Tris-HCl pH 8.0, and 10 mM of EDTA pH 8.0) containing 5 mg/mL of lysozyme and the same volume of glass beads (425–600 μm), by stirring 10 times for 15 s each. Then, the solution was centrifuged at 14,800× g for 15 min, and the supernatant was used for a luciferase assay. For this purpose, in each well of a microtiter plate, 100 μL of luciferase assay buffer (0.015 M of MgSO4, 0.015 M of KH2PO4 pH 8, 0.004 M of EGTA pH 8, and 2 mM of DTT) was added together to a 50 μL of 0.3 mg/mL luciferin solution in 0.01% (w/v) Triton X-100 and 50 μL of the cell extract. Finally, 15 μL of a 67 μg/mL aqueous solution of luciferase was added. Light emission was immediately detected using a Luminoskan Ascent instrument (Thermo Scientific, Waltham, MA, USA) for 1 s per well. Glass beads, lysozyme, luciferin, and luciferase were purchased from Sigma-Aldrich.
[…] Then, cells were collected and washed as above and resuspended in 500 μL of LS2 (140 mM of NaCl, 1.5 mM of MgCl2, 10 mM of Tris-HCl pH 8.0, and 0.5% (v/v) NP40). Cells were lysed in the presence of 1 volume of glass beads as described above. The next steps were carried out as in the case of bacterial samples.
Experiments were carried out at least in triplicate in all cases, and control drugs and SDS (0.1% (w/v) of the final concentration) were also included.

[6] = system: Saccharomyces cerevisiae BY4741/YEplac195-PDR5; experiment: microbe, parasite or virus in culture; format: cell-based; conditions: Saccharomyces cerevisiae, 24 h, read-out: MIC, Yeast, BY4741/ PDR5
Source text: as §2, §3
(§5) The determination of the MIC for yeast strains was carried out following a similar procedure to that of the polyamines and antifungal reference agents: Serial dilutions of each one in phosphate buffer (20 mM, pH 7.4, 0.5 mL) were prepared and mixed with a suspension of yeast cells (OD600 0.04 in SC-ura 2X (VWR, Atlanta, GA, USA), 0.5 mL). […] Experiments were carried out at least three times in all cases.

[7] = system: Saccharomyces cerevisiae BY4741/YEplac195; experiment: microbe, parasite or virus in culture; format: cell-based; conditions: Saccharomyces cerevisiae; 24 h, 30 °C; average of at least three experiments; read-out: MIC, Yeast, BY4741/ YEplac195
Source text: as §2, §3, §5

[8] = system: E. coli; experiment: Checkerboard titration synergy, E. coli; format: cell-based, Escherichia coli; conditions: synergistic when FICI ≤0.5
Description: (§6) The combined antimicrobial activity of the test compounds with the antibacterial or antifungal control agents was performed under the same conditions used for the MIC determination and following the procedures described by Carton Herrán, Reis de Sá et al. and Zharkova et al.. For each experiment, 16 samples (4 rows × 4 columns) in a total volume of 0.5 mL were prepared in tubes using an array of combinations between the MIC value and 0 μg/mL of the compound to be tested in each row, and between the MIC value and 0 μg/mL of the reference drug in each column. In this way, a variety of mixtures with different concentrations of them alone or in combination was obtained. Briefly, 0.5 mL of a microorganism culture was added to each one of the samples, and after incubation for 24 h with shaking at the appropriate temperature (37 °C or 30 °C), the tubs were visually inspected, and the OD600 was measured. From this information, the fractional inhibitory concentration index (FICI) was calculated according to the formula FIC index = ([A]/[CMI A]) + ([B]/[CMI B]), where [A] and [B] are respective concentrations of tested polyamine and reference drug in their combination effectively inhibiting the growth of bacteria or yeast, and [MIC A] and [MIC B] are the individual MICs of the tested polyamine and reference drug when they are used alone. An interaction is considered synergistic when the FICI value is ≤0.5 [41, 42].
(§7) To confirm the data obtained in the checkerboard assay, 30 μL of a ten-fold dilution of the tubes containing concentrations of half of the MIC of each one of the compounds alone (polyamine to be tested and reference drug) and one fourth of the MIC of each one in combination were also spread in LB or SC-ura plates (according to the microorganism considered in each case) and incubated at 37 °C or 30 °C. The visualisation of these plates was performed after 24 or 48 h, respectively. All these experiments were carried out in triplicate.

[9] = Cytotoxicity, flow cytometry viability assay with propidium iodide; format: cell-based, human; conditions: human, Jurkat cells (human lymphocytic leukaemia, ATCC TIB-152), 24 h treatment, average of three experiments, read-out: IC50, cytotoxicity on the human Jurkat cell line
Description: The cytotoxicity of the compounds was assessed via flow cytometry with a viability assay using propidium iodide (PI), a DNA-binding fluorescent probe not permeant to live cells, which is commonly used to detect dead cells in a population. The human lymphocytic leukaemia Jurkat cell line (ATCC TIB-152) was obtained from the American Type Cell Culture (Sigma-Aldrich) and grown in suspension in an RPMI 1640 medium (Thermo Fisher Scientific, Waltham, MA, USA) supplemented with L-glutamine, antibiotics, and 10% heat-inactivated foetal calf serum (FCS, Thermo Fisher Scientific, Waltham, MA, USA). For the viability assay, cells were seeded in plastic 96-well plates at […] in an RPMI 1640 medium supplemented with 5% FCS. The cells were treated for 24 h with a range of concentrations of the test compounds or with the same volume of phosphate buffer (PBS) in control wells. After incubation, cell suspensions were washed, resuspended in 400 μL fresh medium, and incubated for 5 min at room temperature in the dark with 3.75 μM PI (Sigma-Aldrich). Cell viability was determined via flow cytometry using a Gallios flow cytometer (Beckman Coulter). PI fluorescence was excited with an argon-ion laser at 488 nm and collected through a 620/630 nm band-pass emission. Cellular events were discriminated from debris using forward scatter (FS) and side scatter (SS) signals. Cell aggregates were excluded from analysis based on FS-integral and FS-peak. The gates applied for population discrimination were set manually based on control samples. For each sample, 10,000 events were collected. For further analysis, the cytometric data were exported to Kaluza 2.1 software (Beckman Coulter, Brea, CA, USA). Dead cells were identified and quantified as PI-positive events. The cytotoxic potency of test compounds was quantified using their IC50 values, i.e., the compound concentration at which cell viability is inhibited by 50%, as calculated via curve fitting and determined with the correlation coefficient (R2) using GraphPad Prism 9.0 software. Experiments were carried out in triplicate.

[10] = system: Yeast (S. cerevisiae strains); experiment: MIC, yeast (strain not specified); format: cell-based, Saccharomyces cerevisiae; conditions: Saccharomyces cerevisiae; yeast strain not specified (Tables 5 and 10); read-out: MIC Yeast
Description: as §5

[11] = system: S. cerevisiae strains; experiment: Minimal fungicidal concentration, S. cerevisiae strains; format: cell-based, Saccharomyces cerevisiae; conditions: fungistatic = growth on SC-ura plates after incubation at four times the MIC
Description: (§8) Once the MIC was known, the samples were prepared as described in the previous section with polyamine concentrations corresponding to the MIC and half, double, and four times its value. After overnight incubation with the microorganisms, 30 μL of a ten-fold dilution of each one was spread in LB (in the case of bacterial strains) or SC-ura (for yeast strains) plates. They were incubated for 20 h at 37 °C (bacteria) or 48 h at 30 °C (yeasts), and the level of growth was determined. […] Experiments were carried out at least three times.

[12] = system: BY4741/YEplac195; experiment: Checkerboard titration synergy, BY4741/YEplac195; format: cell-based, Saccharomyces cerevisiae; conditions: synergistic when FICI ≤0.5
Description: as §6, §7

[13] = system: BY4741/PDR5; experiment: Checkerboard titration synergy, BY4741/PDR5; format: cell-based, Saccharomyces cerevisiae; conditions: synergistic when FICI ≤0.5
Description: as §6, §7

[14] = system: E. coli JM101; experiment: Minimal bactericidal concentration, E. coli; format: cell-based, Escherichia coli; conditions: Escherichia coli, JM101; overnight incubation, plating on LB; bacteriostatic if growth at 4 times the MIC
Description: as §8

SMILES	Lytic activity (OD600 over time) [1]	MIC [3] [µg/mL]	MIC [4] [µg/mL]	MIC [6] [µg/mL]	MIC [7] [µg/mL]	further results
CC1(C)S[C@@H]2[C@H](NC(=O)[C@H](N)c3ccccc3)C(=O)N2[C@H]1C(=O)O [Ampicillin, reference compound]	cellular lysis	0.14	2			Lytic activity (OD600 over time) [2]: OD600 significantly decreased
OC(Cn1cncn1)(Cn1cncn1)c1ccc(F)cc1F [Fluconazole, reference compound]				60	10	Intracellular ATP level relative to untreated cells ([5]; 30-fold the MIC): very reduced
C[C@@H]1[C@H](O)[C@@H](C)/C=C/C=C/C=C/C=C/C=C/C=C/C=C/[C@H](O[C@@H]2O[C@H](C)[C@@H](O)[C@H](N)[C@@H]2O)C[C@@H]2O[C@](O)(C[C@@H](O)C[C@@H](O)[C@H](O)CC[C@@H](O)C[C@@H](O)CC(=O)O[C@H]1C)C[C@H](O)[C@H]2C(=O)O [Amphotericin B, reference compound]				1	1	Intracellular ATP level relative to untreated cells ([5]; 50-fold the MIC): dramatic decrease
CCCCCCCCCCCCOS(=O)(=O)[O-].[Na+] [SDS]						Intracellular ATP level relative to untreated cells ([5]; 0.1% (w/v)): 50–70%
C[C@H]1c2cccc(O)c2C(=O)C2=C(O)[C@]3(O)C(=O)C(C(N)=O)=C(O)[C@@H](N(C)C)[C@@H]3[C@@H](O)[C@@H]21 [Doxycycline, reference compound]	not the case	0.25	1			
NCCN1CCNCc2cccc(n2)CNCC1 [Compound 5b]		200	10	110	110	Synergy with Ciprofloxacin [8]: synergy; IC50 at 24 h [9]: 1250 µg/mL (≈ 5020 µM); MIC [10]: 110 µg/mL (≈ 441 µM); Minimal fungicidal concentration (MFC), S. cerevisiae Strains [11]: Fungistatic; Synergy with Amphotericin B [12]: -; Synergy with Cycloheximide [12]: positive results and +; Synergy with Fluconazole [12]: synergic and +; Synergy with Amphotericin B [13]: -; Synergy with Cycloheximide [13]: positive results and +; MBC [14]: 20 µg/mL (≈ 80.2 µM)
